Laboratory results as given in PubChem BioAssay (NCI).
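These data come from cells grown in 96-well plates and exposed to compound for 48 hours at five concentrations. At the TGI there is no net growth.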

Key:
Test in all cases: NCI anticancer screen, dose series, 48 h
A498 renal = system: A498 renal
BT-549 breast = system: BT-549 breast
CAKI-1 renal = system: CAKI-1 renal
DU-145 prostate = system: DU-145 prostate
HCT-116 colon = system: HCT-116 colon
HCT-15 colon = system: HCT-15 colon
HOP-62 NSCLC = system: HOP-62 NSCLC
IGROV1 ovarian = system: IGROV1 ovarian
MCF7 breast = system: MCF7 breast
NCI-H226 lung = system: NCI-H226 lung
PC-3 prostate = system: PC-3 prostate
RXF 393 renal = system: RXF 393 renal
SF-268 CNS = system: SF-268 CNS
SK-MEL-2 melanoma = system: SK-MEL-2 melanoma
SK-OV-3 ovarian = system: SK-OV-3 ovarian
SNB-75 CNS = system: SNB-75 CNS
SW-620 colon = system: SW-620 colon
T-47D breast = system: T-47D breast
UACC-62 melanoma = system: UACC-62 melanoma
UO-31 renal = system: UO-31 renal

SMILES	TGI (A498 renal)	TGI (BT-549 breast)	TGI (CAKI-1 renal)	TGI (DU-145 prostate)	TGI (HCT-116 colon)	TGI (HCT-15 colon)	TGI (HOP-62 NSCLC)	TGI (IGROV1 ovarian)	TGI (MCF7 breast)	TGI (NCI-H226 lung)	TGI (PC-3 prostate)	TGI (RXF 393 renal)	TGI (SF-268 CNS)	TGI (SK-MEL-2 melanoma)	TGI (SK-OV-3 ovarian)	TGI (SNB-75 CNS)	TGI (SW-620 colon)	TGI (T-47D breast)	TGI (UACC-62 melanoma)	TGI (UO-31 renal)
COC(=O)/C=C\C(C#N)(C#N)N=Cc1cc(Br)cs1	32.9 µM	17.9 µM	7.53 µM	19.1 µM	3.72 µM	6.37 µM	33 µM	14.1 µM	4.49 µM	35.3 µM	16 µM	5.38 µM	16.5 µM	25.5 µM	33.6 µM	29.7 µM	2.72 µM	5.07 µM	33 µM	5.01 µM
CC(=O)OCC1OC(n2c(C)cc(C)c(C#N)c2=S)C(OC(C)=O)C(OC(C)=O)C1OC(C)=O (configuration not stated)	> 100 µM	> 100 µM	> 100 µM	> 100 µM	> 100 µM	> 100 µM	> 100 µM	> 100 µM	> 100 µM	> 100 µM	> 100 µM	> 100 µM	> 100 µM	> 100 µM	–	> 100 µM	–	> 100 µM	> 100 µM	> 100 µM
O=c1c2ncn(C3CCCO3)c2n(-c2ccccc2)c(=S)n1-c1ccccc1 (configuration not stated)	> 100 µM	> 100 µM	> 100 µM	> 100 µM	> 100 µM	> 100 µM	> 100 µM	> 100 µM	> 100 µM	> 100 µM	> 100 µM	> 100 µM	> 100 µM	> 100 µM	> 100 µM	> 100 µM	> 100 µM	> 100 µM	> 100 µM	> 100 µM
CC(C)=CCC/C(C)=C/CC/C(C)=C/CC(CO)N(C)CC/C=C(\C)CCC=C(C)C (configuration not stated)	28.4 µM	27.5 µM	19.2 µM	23.7 µM	6.46 µM	14.8 µM	15 µM	16 µM	4.8 µM	28.4 µM	20.2 µM	12.8 µM	26.7 µM	28.6 µM	28.9 µM	25 µM	13.7 µM	10.7 µM	29.9 µM	17.9 µM
CCOC(=O)[C@H](C)OC(=O)[C@@](C)(NC(=O)c1ccccc1C(=O)OC)[C@@H]1NC=C(C(=O)OC)CS1	> 100 µM	> 100 µM	> 100 µM	> 100 µM	> 100 µM	> 100 µM	> 100 µM	> 100 µM	> 100 µM	> 100 µM	> 100 µM	> 100 µM	> 100 µM	> 100 µM	> 100 µM	> 100 µM	> 100 µM	> 100 µM	> 100 µM	> 100 µM
O=C1c2ccccc2C(=O)c2c1nc1ccccc1c2-c1cncc(-c2c3c(nc4ccccc24)C(=O)c2ccccc2C3=O)c1	26.7 µM	40 µM	71.1 µM	16.1 µM	24.7 µM	9.34 µM	> 100 µM	19.7 µM	32.8 µM	43.6 µM	> 100 µM	> 100 µM	> 62.8 µM	44.6 µM	> 100 µM	21.1 µM	37.8 µM	57.6 µM	19.9 µM	31.8 µM
[N-]=[N+]=CC(=O)OC1Cc2ccccc2C1	> 100 µM	> 100 µM	> 35.3 µM	> 84.2 µM	> 100 µM	> 100 µM	> 100 µM	> 100 µM	> 100 µM	> 100 µM	> 100 µM	> 100 µM	> 100 µM	> 100 µM	> 100 µM	> 100 µM	> 100 µM	> 100 µM	> 100 µM	35.8 µM
CCOC(=O)/C=C(\C(=O)OCC)n1ccc(=O)n(Cc2cn(CCCCOC(C)=O)nn2)c1=O	32 µM	24.7 µM	8.57 µM	45.4 µM	> 47.4 µM	25.3 µM	41.2 µM	43 µM	23.8 µM	32.7 µM	36.9 µM	47.4 µM	36.9 µM	37 µM	> 65.5 µM	41.8 µM	8.38 µM	> 41 µM	33.2 µM	28.6 µM
CCOC(=O)C(CCN1CCC2(CC1)C(=O)N(C)CN2c1ccccc1)C(=O)OCC	> 100 µM	> 100 µM	> 100 µM	> 100 µM	> 100 µM	> 100 µM	> 100 µM	> 100 µM	> 100 µM	> 100 µM	> 100 µM	> 100 µM	> 100 µM	> 100 µM	> 100 µM	> 100 µM	> 100 µM	> 100 µM	> 100 µM	> 100 µM
CC1OC(OC2C(OC(=O)[C@]34CCC(C)(C)C[C@H]3C3=CC[C@@H]5[C@@]6(C)CC[C@H](OC7OC(CO)C(O)C(O)C7OC7OC(CO)C(O)C(O)C7O)C(C)(C)[C@@H]6CC[C@@]5(C)[C@]3(C)CC4)OCC(O)C2O)C(O)C(OC2OCC(O)C(O)C2O)C1OC1OCC(O)C(OC2OCC(O)C(O)C2O)C1O (some centres not stated)	5.11 µM	31.4 µM	21.8 µM	38.3 µM	> 100 µM	> 79.4 µM	29.6 µM	> 67.4 µM	58.3 µM	24.7 µM	25.9 µM	55.5 µM	33.1 µM	24.1 µM	> 69.5 µM	40.8 µM	> 55.6 µM	51.8 µM	30.2 µM	4.98 µM
O=c1nc(N2CCNCC2)oc2cc(Cl)oc(=O)c12	37.9 µM	6.26 µM	9.49 µM	21.8 µM	7.53 µM	15 µM	14 µM	16.6 µM	17.8 µM	37.9 µM	19.9 µM	24.8 µM	15.9 µM	29.1 µM	33.2 µM	17.4 µM	21.1 µM	> 21.7 µM	25.2 µM	23 µM
COc1ccc(/C=C2\c3cc(OC)c(OC)cc3CCN2C(=O)c2ccccc2)cc1OC	> 100 µM	> 100 µM	> 100 µM	> 100 µM	> 100 µM	> 100 µM	> 100 µM	> 100 µM	> 100 µM	> 100 µM	> 100 µM	> 100 µM	> 100 µM	> 100 µM	–	> 100 µM	> 100 µM	86.8 µM	> 100 µM	> 100 µM
CCOC(=O)c1nc2cc(F)c(N3CCOCC3)cc2[nH]c1=O	> 100 µM	> 100 µM	> 100 µM	> 100 µM	> 100 µM	> 100 µM	> 100 µM	> 100 µM	> 100 µM	> 100 µM	> 100 µM	> 100 µM	> 100 µM	> 100 µM	> 100 µM	> 100 µM	> 100 µM	> 100 µM	> 100 µM	> 100 µM
CCOC(=O)Cc1ccc(Nc2nc3ccccc3nc2C(=O)OCC)cc1	86.7 µM	> 100 µM	> 100 µM	> 100 µM	> 100 µM	> 100 µM	> 100 µM	> 100 µM	> 100 µM	> 100 µM	> 100 µM	74.4 µM	> 100 µM	> 100 µM	> 100 µM	38.3 µM	> 100 µM	> 100 µM	> 100 µM	41.3 µM
NCC(=O)Nc1ccc(S(=O)(=O)O)c2cc(S(=O)(=O)O)cc(S(=O)(=O)O)c12	> 100 µM	> 100 µM	> 100 µM	> 100 µM	> 100 µM	> 100 µM	> 100 µM	> 100 µM	> 100 µM	> 100 µM	> 100 µM	> 100 µM	> 100 µM	> 100 µM	> 100 µM	> 100 µM	> 100 µM	> 100 µM	> 100 µM	> 100 µM
CCOc1nnnc2nc[nH]c12	> 100 µM	> 100 µM	> 100 µM	> 100 µM	> 100 µM	> 100 µM	> 100 µM	> 100 µM	> 100 µM	> 100 µM	> 100 µM	> 100 µM	> 100 µM	> 100 µM	> 100 µM	> 100 µM	> 100 µM	> 100 µM	> 100 µM	> 100 µM
Nc1ccn([C@H]2CO[C@@H](CO)[C@@H]2O)c(=O)n1	> 100 µM	> 100 µM	> 100 µM	> 100 µM	> 100 µM	> 100 µM	> 100 µM	> 100 µM	> 100 µM	> 100 µM	> 100 µM	> 100 µM	> 100 µM	> 100 µM	> 100 µM	> 100 µM	> 100 µM	> 100 µM	> 100 µM	> 100 µM
Cc1ncc([N+](=O)[O-])n1CCNCCCCn1ccnc1[N+](=O)[O-]	> 100 µM	> 100 µM	> 100 µM	> 100 µM	> 100 µM	> 100 µM	> 100 µM	> 100 µM	> 100 µM	> 100 µM	> 100 µM	> 100 µM	> 100 µM	> 100 µM	> 100 µM	> 100 µM	> 100 µM	> 100 µM	> 100 µM	> 100 µM
CC1C=CN(N(C)C)C2=C1C(=O)c1cnccc1C2=O (configuration not stated)	2.66 µM	1.66 µM	0.597 µM	1.39 µM	1.48 µM	1.23 µM	1.42 µM	1.07 µM	0.986 µM	2.14 µM	7.89 µM	1.46 µM	5.21 µM	4.02 µM	2.81 µM	0.868 µM	1.83 µM	4.33 µM	0.342 µM	0.39 µM
COC1=C(Br)[C@H](O)[C@@]2(C=C1Br)CC(C(=O)NCCCOc1c(Br)cc(C(O)CNC(C)=O)cc1Br)=NO2 (some centres not stated)	> 10 µM	> 10 µM	> 10 µM	> 10 µM	> 10 µM	> 10 µM	> 10 µM	> 10 µM	> 10 µM	> 10 µM	> 10 µM	> 10 µM	> 10 µM	> 10 µM	> 10 µM	> 10 µM	> 10 µM	> 10 µM	> 10 µM	> 10 µM
CC(=O)OCC1OC(OC2CC3C(C)(C)C(O)CC[C@]3(C)C3CCC45CC4(CCC5[C@@H](C)CC(O)C(O)C(C)(C)O)[C@]23C)C(O)C(O)C1O (some centres not stated)	> 10 µM	> 10 µM	> 10 µM	> 10 µM	> 10 µM	> 10 µM	> 10 µM	> 10 µM	> 10 µM	> 10 µM	> 10 µM	> 10 µM	> 10 µM	> 10 µM	> 10 µM	> 10 µM	> 10 µM	> 10 µM	> 10 µM	> 10 µM
O=C1C=C(NCCOCCO)C(=O)c2c(O)ccc(O)c21	> 100 µM	> 100 µM	> 100 µM	> 100 µM	55 µM	57.1 µM	> 100 µM	> 100 µM	40.1 µM	> 100 µM	> 100 µM	> 100 µM	> 100 µM	51.9 µM	> 100 µM	> 100 µM	33.1 µM	59.8 µM	28.2 µM	> 100 µM
COc1cccc2nc3c(C(=O)NCCN(C)C)cccc3cc12	2.98 µM	10.7 µM	4.18 µM	14.4 µM	14.9 µM	11.2 µM	7.1 µM	11 µM	8 µM	4.15 µM	10.2 µM	9.74 µM	15.5 µM	12.7 µM	4.94 µM	14.4 µM	4.83 µM	16.7 µM	7.77 µM	2.99 µM
